The values below come from ChEMBL document CHEMBL1201862, “PubChem BioAssay data set” (2004).

Common to all, as to experiment: growth of human tumour cells (NCI), 48 h
For experiment [1], the system named is Malme-3M.
The test system of experiment [2] is RPMI-8226.
Experiment [3] relates to OVCAR-4.
Experiment [4] has as its system NCI-H226.
Experiment [5] has as its system M14.
Experiment [6] concerns COLO 205.
In experiment [7] the test system is NCI/ADR-RES.
Experiment [8] deals with NCI-H522.
For experiment [9], the system named is U-251.
The test system of experiment [10] is SF-295.
Experiment [11] concerns HL-60.
Experiment [12] relates to DU-145.
Experiment [13] has as its system SNB-75.
Experiment [14] relates to SF-539.
For experiment [15], the system named is PC-3.
The subject of experiment [16] is HT-29.
The subject of experiment [17] is TK-10.
For experiment [18], the system named is HCC 2998.
For experiment [19], the system named is CAKI-1.
Experiment [20] has as its system RXF 393.

Structures are written as SMILES.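 Values below derive from 48-hour exposures of cells grown in 96-well plates, with endpoints linearly interpolated between the two concentrations bracketing the appropriate inhibition level. The concentration for 50% growth inhibition is given as GI50.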 Calls of active or inactive are those of the source. Cut-off read from the data, not from the text of the source: active = GI50 up to about 1.1 µM and inactive = higher.

As for `COc1ccc(-n2sc3ncc([N+](=O)[O-])cc3c2=O)cc1`, the GI50 in [1], in experiment [2], in experiment [3], in experiment [4], in experiment [5] and in experiment [6] was > 100 µM (inactive) throughout. For the same molecule, the GI50 in [7] is > 100 µM (inactive); in experiment [8], 34.4 µM (inactive); in experiment [9], > 100 µM (inactive); in experiment [10], > 100 µM (inactive); in [11] it was > 100 µM (inactive); in experiment [12], > 100 µM (inactive). For the same molecule, the GI50 in experiment [13], in experiment [14], in experiment [15], in experiment [16], in experiment [17] and in [18] was > 100 µM (inactive) each time.
On to `COC1=CC(=O)N(C(=O)C2CSC(C(CO)NC(=O)c3csc(/C=N/O)n3)=N2)C1` (stereo unspecified), for which the GI50 is 64.4 µM (inactive) in experiment [1]; > 100 µM (inactive) in experiment [2]; 36.6 µM (inactive) in [4]; > 100 µM (inactive) in experiment [5]; > 100 µM (inactive) in [6]; > 100 µM (inactive) in experiment [7]. For the same molecule, the GI50 is > 100 µM (inactive) in experiment [10]; > 100 µM (inactive) in experiment [11]; > 100 µM (inactive) in experiment [12]; > 100 µM (inactive) in experiment [19]; 0.302 µM (active) in experiment [13]; > 100 µM (inactive) in experiment [14]. Moreover, the GI50 in [15], in [16] and in experiment [17] was > 100 µM (inactive) each time.
On to `Cc1cc(C)nc(NS(=O)(=O)c2ccc(Nc3c4ccccc4nc4c(C(=O)NCCCN(CCO)CCO)cccc34)cc2)n1`, for which the GI50 in experiment [1] is 15.4 µM (inactive); in experiment [2] it was 9.38 µM (inactive); in experiment [3] it was 16.9 µM (inactive); in experiment [5], 31.8 µM (inactive); in experiment [6], 14 µM (inactive); in experiment [7] it was > 100 µM (inactive). Also, the GI50 in experiment [8] is 10.9 µM (inactive); in experiment [9], 13.9 µM (inactive); in experiment [10], 27.4 µM (inactive); in experiment [11] it was 11.5 µM (inactive); in [12], 41.6 µM (inactive); in experiment [19], 56.2 µM (inactive). In addition, the GI50 in experiment [13] is 3.35 µM (inactive); in [15] it was 14.9 µM (inactive); in experiment [16], 12.9 µM (inactive); in experiment [17] it was > 100 µM (inactive); in [18], 16.7 µM (inactive).
Turning to `O=C1CC2OCC=C3CN4CCC56c7ccccc7N1C5C2C3CC46O` (stereo unspecified), the GI50 in experiment [1], in experiment [2], in [3], in experiment [4], in [5] and in experiment [6] was > 100 µM (inactive) each time. Moreover, the GI50 in experiment [7] is > 100 µM (inactive); in experiment [8], 47.5 µM (inactive); in [9], > 100 µM (inactive); in experiment [10], > 100 µM (inactive); in [11], > 100 µM (inactive); in experiment [12] it was > 100 µM (inactive). Also, the GI50 in experiment [19] was 97.3 µM (inactive); in experiment [13], > 100 µM (inactive); in experiment [14] it was > 100 µM (inactive); in [15], > 100 µM (inactive); in experiment [16], > 100 µM (inactive); in [17] it was > 100 µM (inactive). For the same molecule, the GI50 in [18] was > 100 µM (inactive).
Consider `Nc1cc(N2CCCC2)nc(=O)n1Cc1ccccc1`, for which the GI50 in experiment [1], in experiment [2], in [3], in experiment [4], in experiment [5] and in experiment [6] was > 100 µM (inactive) each time. The GI50 in experiment [7], in [8], in experiment [9], in experiment [10], in [11] and in experiment [12] was > 100 µM (inactive) each time. Besides, the GI50 in experiment [19], in experiment [13], in experiment [14], in experiment [15], in experiment [16] and in [17] was > 100 µM (inactive) in each case.
For `OCC1CCCCCCCCCCC12SCCCS2` (stereo unspecified), the GI50 in experiment [1], in [2], in experiment [3], in experiment [4], in experiment [5] and in experiment [6] was > 100 µM (inactive) throughout. Moreover, the GI50 in experiment [7], in experiment [8], in experiment [9], in experiment [11], in experiment [12] and in [19] was > 100 µM (inactive) each time. For the same molecule, the GI50 is > 100 µM (inactive) in [13], 71 µM (inactive) in experiment [15], > 100 µM (inactive) in experiment [16] and > 100 µM (inactive) in [17].
Regarding `N#Cc1ccc(-c2nc3cc(Cl)ccc3[nH]2)cc1`, the GI50 in [2] was > 100 µM (inactive); in experiment [4], 99.5 µM (inactive); in experiment [5], 79.1 µM (inactive); in [6] it was 74.8 µM (inactive); in [7], 30.4 µM (inactive); in experiment [20], > 100 µM (inactive). The GI50 in experiment [8] is 32.4 µM (inactive); in experiment [9], 61.9 µM (inactive); in [10], 44.6 µM (inactive); in experiment [11], 13 µM (inactive); in experiment [19], 54.2 µM (inactive); in experiment [13], > 100 µM (inactive). In addition, the GI50 in experiment [14] is > 100 µM (inactive); in experiment [15] it was 40.2 µM (inactive); in experiment [16], 48.2 µM (inactive); in experiment [18], 38.1 µM (inactive).
As to `Cc1oc2ccccc2c(=O)c1Cn1nnc2ccccc21`, the GI50 in experiment [1] was > 100 µM (inactive); in experiment [2], 35.7 µM (inactive); in experiment [3] it was 53.3 µM (inactive); in experiment [4] it was 53.1 µM (inactive); in experiment [5], 80.7 µM (inactive); in [6] it was 42.9 µM (inactive). Further, the GI50 is 60.7 µM (inactive) in experiment [7]; > 100 µM (inactive) in experiment [9]; > 100 µM (inactive) in experiment [10]; 48.5 µM (inactive) in experiment [11]; 25.5 µM (inactive) in experiment [12]; 45.6 µM (inactive) in experiment [13]. Besides, the GI50 in experiment [14] is > 100 µM (inactive); in experiment [15] it was > 100 µM (inactive); in experiment [16], 91.8 µM (inactive); in experiment [17], > 100 µM (inactive); in [18] it was > 100 µM (inactive).
As for `[O-][S+](Nc1ccccc1)c1ccc(Cl)c(Cl)c1` (stereo unspecified), the GI50 is 56.6 µM (inactive) in experiment [1]; 51.6 µM (inactive) in experiment [2]; 47.9 µM (inactive) in experiment [3]; 51.1 µM (inactive) in experiment [4]; 73.5 µM (inactive) in experiment [5]; 69.7 µM (inactive) in experiment [6]. The GI50 in experiment [7] was 37.5 µM (inactive); in [8] it was 21.9 µM (inactive); in experiment [9], 15.9 µM (inactive); in [10] it was 24.2 µM (inactive); in experiment [11] it was 36.9 µM (inactive); in experiment [12], 69.8 µM (inactive). In addition, the GI50 in experiment [14] was 20.6 µM (inactive); in experiment [16], > 100 µM (inactive); in experiment [17] it was > 100 µM (inactive); in [18] it was 27.3 µM (inactive).
Take `C#CC(O)/C=C/C(O)CCCC(O)CC#CC(O)C#CCCCCC(O)/C=C/CCCCCC(=O)CCCCCCCCCCCCCC(O)C(O)C#CC(=O)O` (stereo unspecified): the GI50 in experiment [1] is > 25 µM (inactive); in [2], > 25 µM (inactive); in experiment [3], 15.8 µM (inactive); in [4], > 25 µM (inactive); in [5], > 25 µM (inactive); in [6], > 25 µM (inactive). Moreover, the GI50 in experiment [7] was > 25 µM (inactive); in experiment [8], 4.88 µM (inactive); in [9], > 25 µM (inactive); in experiment [10], > 25 µM (inactive); in experiment [11], > 25 µM (inactive); in experiment [12], > 25 µM (inactive). Further, the GI50 in experiment [19], in experiment [13], in experiment [15], in experiment [16], in experiment [17] and in [18] was > 25 µM (inactive) in each case.
In the case of `O=C1CCCCC/C1=C\c1ccc(F)cc1`, the GI50 in [1] is > 100 µM (inactive); in [2], 45.2 µM (inactive); in [3], 95.5 µM (inactive); in [4] it was > 100 µM (inactive); in experiment [5], > 100 µM (inactive); in [6], > 100 µM (inactive). In addition, the GI50 in experiment [8] is 51.5 µM (inactive); in experiment [9] it was 98.6 µM (inactive); in experiment [10] it was > 100 µM (inactive); in [12] it was > 100 µM (inactive); in experiment [19] it was > 100 µM (inactive); in [13] it was > 100 µM (inactive). Besides, the GI50 in [15] was > 100 µM (inactive); in [16], > 100 µM (inactive); in [17], 50.8 µM (inactive); in [18], > 100 µM (inactive).
